Measurements reported in US20230160909A1, “NOVEL ION CONDUCTING CHANNEL FUSION SUBUNITS AND METHODS OF USE THEREOF” (UNIVERSITE DE BORDEAUX, priority 2020, published 2023).

What was measured:
Type in all cases: cell-based
NaV1.8 = target: T1, NaV1.8 (Homo sapiens, UniProt Q9Y5Y9); experiment: mNeon-SOFI-nLuc-NaV1.8 BRET probe in HEK293T cells; settings: FIG. 10C
T1 construct: expressed in transfected cells; host or cells: HEK293T
From the text: (§1) B) Kinetic measurement of the effect of KCl injection on the BRET measured from HEK293T cells transiently expressing mNeon-Calflux-nLuc-KiR6.1 BRET probe. C) Kinetic measurement of the effect of Deltamethrine injection on the BRET measured from HEK293T cells transiently expressing mNeon-SOFI-nLuc-NaV1.8 BRET probe.
(§2) TREK1 BRET probe was activated using the chemical activator BL1249. Kir6.1 BRET probe was activated using KCl. Following depolarization, a strong outward potassium current is known to occur in HEK293T cells. Extracellular potassium ions would therefore be expected to re-enter the cells through ectopically-expressed inward rectifying ion channels such as KiR6.1, thereby increasing the local concentration of potassium in the intracellular vicinity of the KiR ion channel. NaV1.8 was activated in the presence of Deltamethrin, a pyrethroid toxin that is known to prolong the open state of tetrodotoxin-resistant sodium channels. […] While surprising, this observation could nonetheless be explained knowing that TREK1 trigger hyperpolarisation of the cell membrane by allowing potassium to leak outside cells, thus lowering the intracellular potassium concentration which will tend to balance with the extracellular potassium concentration. In that conditions, it has been shown that potassium will inwardly flow through TREK1 opened pore, which is in line with our observations.

NR1 subunit = target: T2, NR1 subunit (Homo sapiens, UniProt Q05586); experiment: NR1-nLuc-Calflux-YFP BRET probe expressed alone in HEK293T cells; settings: increasing dose, FIG. 7A
T2 construct: expressed in transfected cells; host or cells: HEK293T
From the text: (§3) FIG. 7: Dose-response for NMDA as measured in HEK293T cells transiently expressing the NR1-nLuc-Calflux-YFP probe alone (A) or coexpressed with NR2A (B) or NR2B (C) subunits.
(§4) We have constructed a novel BRET probe allowing to measure the activity of NMDA receptors by coupling the cDNA of the NR1 subunit to the BRET sensor nLuc-Calflux-YFP (FIG. 7). NMDA receptors are heterotetramers comprising 2 NR1 subunits and 2 NR2 or NR3 subunits. The subunits NR1, NR2 or NR3 expressed separately cannot form functional receptors.

[1] = target: T3, NR1-nLuc-Calflux-YFP/NR2B ion channels (NMDA receptors) (Homo sapiens, UniProt Q05586+Q13224); experiment: NR1-nLuc-Calflux-YFP BRET probe coexpressed with NR2B in HEK293T cells; settings: read-out: EC50 of activation of NR1-nLuc-Calflux-YFP/NR2B
T3 construct: expressed in transfected cells; host or cells: HEK293T
From the text: as §3, §4

[2] = system: potassium channel SK3 (KCa2.3); experiment: SK3-nLuc-KBP-mNeonGreen BRET probe in HEK293T cells; settings: different concentrations, FIG. 5B
From the text: FIG. 5: is a schematic representation of the SK3-nLuc-KBP-mNeonGreen probe (A) and the measure of BRET signal as obtained during the activation of the channel in presence of lonomycine (B).
The novel BRET probe has been constructed to measure the activity of potassium channel SK3 (KCa2.3) by coupling the cDNA of the SK3 channel to a potassium sensor (protein KBP, Ashrafet KU al., 2016, Structure 24, 741-749) sandwiched in between luciferase and mNeonGreen (SK3-nLuc-KBP-mNeonGreen, See FIG. 5A).
The BRET sensor is based on KBP which has been published (Bischof H et al, 2017, Nat Commun. 8(1):1422), but this sensor was never coupled to a channel in order to specifically measure the activity of the channel as presented in this invention.

TRPV1 channel = target: T4, TRPV1 channel (Homo sapiens, UniProt Q8NER1); experiment: hTRPV1-nLuc-Calflux-YFP (or mNeonGreen) BRET probe in HEK293T cells
T4 construct: expressed in transfected cells; host or cells: HEK293T
T4 sequence (Q8NER1 whole entry): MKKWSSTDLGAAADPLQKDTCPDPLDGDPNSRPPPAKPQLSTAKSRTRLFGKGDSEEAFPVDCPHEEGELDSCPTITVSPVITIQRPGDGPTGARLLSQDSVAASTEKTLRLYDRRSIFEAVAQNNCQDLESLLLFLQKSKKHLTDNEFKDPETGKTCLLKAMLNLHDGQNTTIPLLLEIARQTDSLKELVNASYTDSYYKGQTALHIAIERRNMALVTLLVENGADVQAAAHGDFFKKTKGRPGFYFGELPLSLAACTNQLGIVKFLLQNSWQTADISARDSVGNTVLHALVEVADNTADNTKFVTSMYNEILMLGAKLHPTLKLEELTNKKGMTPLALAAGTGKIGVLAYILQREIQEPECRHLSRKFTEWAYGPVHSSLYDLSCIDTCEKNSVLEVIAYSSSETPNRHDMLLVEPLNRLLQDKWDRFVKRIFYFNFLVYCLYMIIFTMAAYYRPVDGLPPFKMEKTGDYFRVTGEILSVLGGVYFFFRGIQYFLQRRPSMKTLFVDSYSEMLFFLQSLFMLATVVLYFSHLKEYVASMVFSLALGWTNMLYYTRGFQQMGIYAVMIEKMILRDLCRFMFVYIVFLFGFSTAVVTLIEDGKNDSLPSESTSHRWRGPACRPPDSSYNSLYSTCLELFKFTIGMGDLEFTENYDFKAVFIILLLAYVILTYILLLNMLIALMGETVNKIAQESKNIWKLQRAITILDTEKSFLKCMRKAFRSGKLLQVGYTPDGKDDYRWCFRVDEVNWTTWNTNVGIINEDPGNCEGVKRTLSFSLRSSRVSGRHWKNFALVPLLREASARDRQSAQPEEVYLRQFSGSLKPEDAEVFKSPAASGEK

PIEZO1 channel = target: T5, PIEZO1 channel (Homo sapiens, UniProt Q92508); experiment: mNeonGreen-Calflux-nLuc-PIEZO1 BRET probe in HEK293T cells; settings: FIG. 9C
T5 construct: expressed in transfected cells; host or cells: HEK293T
Experimental: (§5) B) Dose response curve of the TRPM8 agonist WS12 to trigger activation of the mNeon-Calflux-nLuc-hTRPM8 BRET probe transiently expressed in HEK293T cells that were pre-treated or not with 10 μM of the TRPM8 antagonist M8B hydrochloride. C) Dose response curve of the PIEZO1 agonist YODA1 to trigger activation of the mNeon-Calflux-nLuc-PIEZO1 BRET probe transiently expressed in HEK293T cells. Data represent the average of at least three independent experiments.
This confirms the functionality of our calcium sensor-based BRET Probe targeting PIEZO1.

TRPV1 ion channel = target: T6, TRPV1 ion channel (Homo sapiens, UniProt Q8NER1); experiment: mNeonGreen-Calflux-nLuc-hTRPV1 BRET biosensor in HEK293T cells; settings: for inhibition of CAPS-induced BRET increase: FIG. 8C/8E
T6 construct: expressed in transfected cells; host or cells: HEK293T
T6 sequence (Q8NER1 whole entry): as above

KiR6.1 = target: T7, KiR6.1 (Homo sapiens, UniProt Q15842); experiment: mNeon-KBP-nLuc-KiR6.1 BRET probe in HEK293T cells; settings: KCl depolarisation, FIG. 10B
T7 construct: expressed in transfected cells; host or cells: HEK293T
T7 sequence (Q15842 1-424): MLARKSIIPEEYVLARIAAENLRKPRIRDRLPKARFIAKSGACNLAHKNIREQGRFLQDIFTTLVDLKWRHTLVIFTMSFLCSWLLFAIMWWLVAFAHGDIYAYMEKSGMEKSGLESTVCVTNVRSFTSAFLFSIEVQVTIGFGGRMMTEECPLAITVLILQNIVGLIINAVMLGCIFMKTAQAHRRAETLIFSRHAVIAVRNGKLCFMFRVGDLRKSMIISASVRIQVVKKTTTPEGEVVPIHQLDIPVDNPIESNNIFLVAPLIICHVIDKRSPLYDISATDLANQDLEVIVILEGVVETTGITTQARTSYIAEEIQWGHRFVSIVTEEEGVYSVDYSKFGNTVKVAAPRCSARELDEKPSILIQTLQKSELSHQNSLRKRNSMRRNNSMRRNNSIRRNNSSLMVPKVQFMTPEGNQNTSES
From the text: […] C) Kinetic measurement of the effect of Deltamethrine injection on the BRET measured from HEK293T cells transiently expressing mNeon-SOFI-nLuc-NaV1.8 BRET probe.
as §2

TRPV4 = target: T8, TRPV4 (Homo sapiens, UniProt Q9HBA0); experiment: mNeonGreen-Calflux-nLuc-hTRPV4 BRET probe in HEK293T cells
T8 construct: expressed in transfected cells; host or cells: HEK293T
T8 sequence (Q9HBA0 whole entry): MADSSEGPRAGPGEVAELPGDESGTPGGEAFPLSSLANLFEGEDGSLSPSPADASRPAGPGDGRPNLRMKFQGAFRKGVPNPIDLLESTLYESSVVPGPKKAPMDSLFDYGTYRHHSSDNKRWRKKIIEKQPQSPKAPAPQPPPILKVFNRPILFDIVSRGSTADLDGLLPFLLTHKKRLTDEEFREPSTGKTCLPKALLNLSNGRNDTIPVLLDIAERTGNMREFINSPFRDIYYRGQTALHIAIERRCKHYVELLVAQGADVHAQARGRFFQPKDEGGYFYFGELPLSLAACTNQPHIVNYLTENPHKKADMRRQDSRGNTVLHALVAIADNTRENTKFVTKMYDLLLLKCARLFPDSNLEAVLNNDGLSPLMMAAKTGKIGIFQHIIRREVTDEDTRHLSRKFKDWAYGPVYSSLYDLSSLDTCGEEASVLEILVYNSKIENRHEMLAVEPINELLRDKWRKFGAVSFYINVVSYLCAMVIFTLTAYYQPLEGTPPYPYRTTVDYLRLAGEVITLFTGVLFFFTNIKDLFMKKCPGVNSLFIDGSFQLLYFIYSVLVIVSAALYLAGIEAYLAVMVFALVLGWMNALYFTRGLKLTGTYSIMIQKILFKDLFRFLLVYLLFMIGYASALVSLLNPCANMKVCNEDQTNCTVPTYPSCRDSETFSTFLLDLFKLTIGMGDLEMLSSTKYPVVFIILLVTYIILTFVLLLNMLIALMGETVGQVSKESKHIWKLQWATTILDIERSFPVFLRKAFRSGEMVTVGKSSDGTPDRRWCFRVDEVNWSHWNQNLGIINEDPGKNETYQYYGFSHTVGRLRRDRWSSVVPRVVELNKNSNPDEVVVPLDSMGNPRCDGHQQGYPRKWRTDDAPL
Experimental: as §5
(§6) As described above in Examples 7 and 8, the intramolecular BRET biosensor probes hTRPM8-nLuc-Calflux-mGreen and hTRPV4-nLuc-Calflux-mGreen have been prepared wherein the DNA sequence encoding the human protein TRPM8 is fused in C-terminal to a calflux-based calcium BRET sensor, said sensor being sandwiched between the nano luciferase and mNeonGreen. In an effort to exemplify and validate the concept of Calcium sensor-based BRET probes fused to other ion channels, we first assessed whether the activity of two other TRPs ion channels, TRPV4 and TRPM8, could also be measured using such BRET probes. […] The measured half-maximal responses were consistent with those reported in the literature using patch-clamp or calcium-flux measurements on cells transiently expressing TRPV4 or TRPM8.

TREK1 = target: T9, TREK1 (Homo sapiens, UniProt O95069); experiment: mNeon-KBP-nLuc-TREK1 BRET probe in HEK293T cells; settings: repeated activation with increasing quantities, FIG. 10A
T9 construct: expressed in transfected cells; host or cells: HEK293T
T9 sequence (O95069 1-426): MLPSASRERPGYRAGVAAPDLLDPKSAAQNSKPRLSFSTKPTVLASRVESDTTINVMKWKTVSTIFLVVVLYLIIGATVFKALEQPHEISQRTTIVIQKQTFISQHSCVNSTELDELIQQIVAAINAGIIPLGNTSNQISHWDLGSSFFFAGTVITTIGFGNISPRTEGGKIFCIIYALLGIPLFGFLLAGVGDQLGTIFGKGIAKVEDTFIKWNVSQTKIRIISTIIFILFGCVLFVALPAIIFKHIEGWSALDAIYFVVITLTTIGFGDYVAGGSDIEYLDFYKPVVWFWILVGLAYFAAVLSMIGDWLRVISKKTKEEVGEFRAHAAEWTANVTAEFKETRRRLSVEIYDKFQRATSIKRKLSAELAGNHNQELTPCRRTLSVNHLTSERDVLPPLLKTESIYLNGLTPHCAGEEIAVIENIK
From the text: as §1, §2

TRPM8 = target: T10, TRPM8 (Homo sapiens, UniProt Q7Z2W7); experiment: mNeonGreen-Calflux-nLuc-hTRPM8 BRET probe in HEK293T cells
T10 construct: expressed in transfected cells; host or cells: HEK293T
T10 sequence (Q7Z2W7 whole entry): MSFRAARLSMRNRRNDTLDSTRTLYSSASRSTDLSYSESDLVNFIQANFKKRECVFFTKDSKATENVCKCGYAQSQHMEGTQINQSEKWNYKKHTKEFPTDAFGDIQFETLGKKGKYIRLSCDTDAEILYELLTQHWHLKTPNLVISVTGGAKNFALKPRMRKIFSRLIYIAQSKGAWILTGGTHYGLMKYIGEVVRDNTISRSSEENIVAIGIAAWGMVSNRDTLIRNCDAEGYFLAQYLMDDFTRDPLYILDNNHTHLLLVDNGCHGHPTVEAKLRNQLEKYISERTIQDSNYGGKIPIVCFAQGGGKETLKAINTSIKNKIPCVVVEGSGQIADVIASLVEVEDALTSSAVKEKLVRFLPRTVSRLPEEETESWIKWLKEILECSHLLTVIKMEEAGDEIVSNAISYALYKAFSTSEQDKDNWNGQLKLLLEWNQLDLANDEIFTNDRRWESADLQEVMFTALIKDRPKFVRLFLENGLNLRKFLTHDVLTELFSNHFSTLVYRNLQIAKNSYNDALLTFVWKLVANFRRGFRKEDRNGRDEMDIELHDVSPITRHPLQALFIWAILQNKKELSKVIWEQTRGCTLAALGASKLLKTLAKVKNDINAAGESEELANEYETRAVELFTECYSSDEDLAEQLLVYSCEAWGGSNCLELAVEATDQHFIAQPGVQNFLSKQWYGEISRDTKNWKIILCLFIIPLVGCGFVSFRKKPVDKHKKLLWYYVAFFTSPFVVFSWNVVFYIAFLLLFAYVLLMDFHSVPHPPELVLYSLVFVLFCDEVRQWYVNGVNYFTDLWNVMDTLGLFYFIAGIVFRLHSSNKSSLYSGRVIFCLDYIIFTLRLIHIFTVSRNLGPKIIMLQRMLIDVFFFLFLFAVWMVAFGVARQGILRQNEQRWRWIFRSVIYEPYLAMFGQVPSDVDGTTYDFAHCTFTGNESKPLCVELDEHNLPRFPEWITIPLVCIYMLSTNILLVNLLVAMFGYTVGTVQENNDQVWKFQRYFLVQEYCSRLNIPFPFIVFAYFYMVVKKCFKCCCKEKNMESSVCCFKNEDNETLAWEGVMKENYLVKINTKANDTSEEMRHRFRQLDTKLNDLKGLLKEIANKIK
Experimental: as §5, §6

[3] = HEK293T cells pre-treated with 10 μM antagonist

T1 sequence (Q9Y5Y9 whole entry): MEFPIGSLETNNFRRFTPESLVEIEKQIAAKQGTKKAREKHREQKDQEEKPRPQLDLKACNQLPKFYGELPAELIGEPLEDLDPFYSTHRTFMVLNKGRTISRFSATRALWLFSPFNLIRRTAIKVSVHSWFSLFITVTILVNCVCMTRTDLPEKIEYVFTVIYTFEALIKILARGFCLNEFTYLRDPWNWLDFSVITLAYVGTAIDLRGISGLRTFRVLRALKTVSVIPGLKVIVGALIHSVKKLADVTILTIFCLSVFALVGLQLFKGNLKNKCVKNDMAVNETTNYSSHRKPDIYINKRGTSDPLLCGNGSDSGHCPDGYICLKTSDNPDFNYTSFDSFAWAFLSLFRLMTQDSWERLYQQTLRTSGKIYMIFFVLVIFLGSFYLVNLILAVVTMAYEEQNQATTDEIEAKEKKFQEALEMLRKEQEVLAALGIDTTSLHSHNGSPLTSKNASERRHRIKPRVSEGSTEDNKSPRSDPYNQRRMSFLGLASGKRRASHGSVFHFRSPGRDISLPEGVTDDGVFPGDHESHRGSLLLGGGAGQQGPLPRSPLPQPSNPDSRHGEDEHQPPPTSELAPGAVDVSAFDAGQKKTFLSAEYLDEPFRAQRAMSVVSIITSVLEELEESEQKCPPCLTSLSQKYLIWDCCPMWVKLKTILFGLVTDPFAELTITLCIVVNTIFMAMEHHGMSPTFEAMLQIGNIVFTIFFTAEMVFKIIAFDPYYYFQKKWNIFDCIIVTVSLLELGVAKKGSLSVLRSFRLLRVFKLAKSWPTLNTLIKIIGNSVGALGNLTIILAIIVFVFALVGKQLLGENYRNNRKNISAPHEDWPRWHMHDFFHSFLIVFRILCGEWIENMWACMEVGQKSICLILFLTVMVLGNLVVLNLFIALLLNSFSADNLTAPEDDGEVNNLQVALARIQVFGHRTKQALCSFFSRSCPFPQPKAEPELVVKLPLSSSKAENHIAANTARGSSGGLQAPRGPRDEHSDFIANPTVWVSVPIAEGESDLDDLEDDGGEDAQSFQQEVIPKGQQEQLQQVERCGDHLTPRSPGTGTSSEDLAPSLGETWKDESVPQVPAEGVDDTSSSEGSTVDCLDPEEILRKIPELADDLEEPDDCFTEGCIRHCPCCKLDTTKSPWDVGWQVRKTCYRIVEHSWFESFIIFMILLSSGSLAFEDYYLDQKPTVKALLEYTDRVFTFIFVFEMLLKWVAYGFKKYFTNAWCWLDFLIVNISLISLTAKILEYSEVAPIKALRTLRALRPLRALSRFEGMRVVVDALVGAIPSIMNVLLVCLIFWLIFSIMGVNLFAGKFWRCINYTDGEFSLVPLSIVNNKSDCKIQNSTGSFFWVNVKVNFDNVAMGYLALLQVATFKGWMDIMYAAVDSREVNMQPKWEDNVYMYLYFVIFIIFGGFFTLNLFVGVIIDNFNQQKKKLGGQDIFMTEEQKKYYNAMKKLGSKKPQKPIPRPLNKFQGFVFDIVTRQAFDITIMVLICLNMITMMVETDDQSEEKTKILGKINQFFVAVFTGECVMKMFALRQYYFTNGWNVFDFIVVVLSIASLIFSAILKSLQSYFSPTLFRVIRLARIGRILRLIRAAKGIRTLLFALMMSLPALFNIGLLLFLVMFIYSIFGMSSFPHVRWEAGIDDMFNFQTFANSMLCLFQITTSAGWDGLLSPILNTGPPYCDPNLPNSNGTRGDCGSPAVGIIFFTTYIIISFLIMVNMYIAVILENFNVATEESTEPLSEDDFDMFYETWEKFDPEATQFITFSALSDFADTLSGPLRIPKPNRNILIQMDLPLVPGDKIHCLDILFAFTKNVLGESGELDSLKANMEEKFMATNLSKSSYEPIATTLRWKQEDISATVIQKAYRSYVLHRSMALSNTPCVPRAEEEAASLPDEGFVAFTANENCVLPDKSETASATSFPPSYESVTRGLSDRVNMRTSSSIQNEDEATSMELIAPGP

## CC1(C)[C@H](C(=O)O[C@H](C#N)c2cccc(Oc3ccccc3)c2)[C@@H]1C=C(Br)Br [Deltamethrin]
NaV1.8
  change of BRET signal: decrease of the BRET signal

## CN[C@H](CC(=O)O)C(=O)O [NMDA, N-methyl-D-aspartate]
NR1 subunit
  modulation of BRET signal, NR1 probe alone: not modulated
[1]
  EC50: 12.3 µM

## C[C@H](CCC(=O)O)C[C@H](C)C[C@H](C)C(=O)/C=C(\O)[C@H](C)C[C@H](C)C/C=C/[C@@H](C)[C@@H](O)[C@@H](C)[C@@H](O)C[C@@H]1CC[C@@](C)([C@H]2CC[C@@](C)([C@@H](C)O)O2)O1 [ionomycin]
[2]
  change of BRET signal (potassium efflux): decrease of the BRET signal
TRPV1 channel; TRPV1-nLuc-Calflux-YFP/mNeonGreen probe
  change of BRET signal on stimulation: marginal increase

## Clc1cccc(Cl)c1CSc1nnc(-c2cnccn2)s1 [YODA1]
PIEZO1 channel
  change of BRET signal by agonist: dose-dependently increased

## COc1cc(CNC(=O)CCCC/C=C/C(C)C)ccc1O [CAPS, Capsaïcin]
TRPV1 ion channel; kinetic measurement, FIG. 8A
  change of basal BRET after exposure: dramatically increased with first-order kinetics

## [Cl-].[K+] [KCl]
KiR6.1
  change of BRET signal: increase of the BRET signal

## CC(C)NCCN(C(C)C)S(=O)(=O)c1ccc(Cl)cc1Cl [RN1734]
TRPV1 ion channel
  inhibition of CAPS-induced BRET increase: failed to inhibit

## Cc1c(C(=O)Nc2cccc(C(F)(F)F)c2)cc(-c2ccccc2)n1CCCN1CCOCC1 [HC060747]
TRPV4; [3]
  effect on agonist (GSK1016790A) potency: right-shifted the corresponding agonist potency to higher values

## CC(=O)Nc1nc2c(Oc3cc(-c4ccc(C(F)(F)F)cc4)ncn3)cccc2s1 [AMG517]
TRPV1 ion channel
  inhibition of CAPS-induced BRET increase: inhibited the CAPS-induced BRET increase
TRPV1 channel; FIG. 4A
  effect on dose-response to CAPS (antagonism): shifted the dose-response to CAPS to the right

## c1ccc(-c2nn[nH]n2)c(Nc2cccc3c2CCCC3)c1 [BL1249]
TREK1
  change of basal BRET: dose-dependently increased the basal BRET

## CC(C)C[C@H](NC(=O)c1cc2ccccc2s1)C(=O)N1CCN(C(=O)[C@H](CO)NS(=O)(=O)c2ccc(Cl)cc2Cl)CC1 [GSK1016790A]
TRPV4; HEK293T cells, FIG. 9A
  change of BRET signal by agonist: dose-dependently increased

## COc1cc(CN(CCN)C(=O)c2cccs2)ccc1OCc1ccccc1.Cl [MBB]
TRPM8; [3]
  effect on agonist (WS12) potency: right-shifted the corresponding agonist potency to higher values

## COc1ccc(NC(=O)[C@@H]2C[C@H](C)CC[C@H]2C(C)C)cc1 [WS12]
TRPM8; HEK293T cells, FIG. 9B
  change of BRET signal by agonist: dose-dependently increased
